{"source": "patent US12065468B2", "about": "“Heme-binding small peptide” (priority 2021, dated 2024)", "key": {"Sinorhizobium meliloti [1]": {"test_system": "Sinorhizobium meliloti", "experiment": "S. meliloti cell death in 24 hours (plating)", "type": "cell-based"}, "Sinorhizobium meliloti [2]": {"test_system": "Sinorhizobium meliloti", "experiment": "S. meliloti growth curve", "type": "cell-based", "conditions": "increasing amounts of peptide; minimal medium", "description": "Growth curve: All growth curve experiments were performed in a Tecan SPARK 10M microplate reader using polystyrene flat bottomed, non-treated, sterile 96 well plates. Overnight cultures grown in LBMC were washed and were subcultured (1:100 dilution) in minimal medium supplemented with respective iron concentrations. The plates were programed to continuously shake at 150 rpm and temperature maintained at 30° C. Optical density was measured at 600 nm every 60 minutes."}, "[3]": {"experiment": "UV-Vis spectroscopy / colour change on heme addition", "type": "binding", "conditions": "heme added to peptide, ferric heme", "description": "Heme preparation: Hemin solutions were always prepared in 0.1 M NaOH and used within 30 min of preparation. 1:1000 and 1:500 dilution of the stock solution was made and stock concentration was measured by pyridine hemochrome assay as described previously^85 by measuring the absorption at 557 nm using the extinction coefficient of pyridine hemochromogen (34.7 mM^−1 cm^−1).\nUV-VIS spectroscopy: All absorption spectra were collected in a Tecan Spark™ 10 M microplate reader using black polystyrene 96-well plates. Absorbance from 300 nm to 700 nm was recorded with a 5 nm interval after an initial shaking at 100 rpm for 15 secs. Heme binding to synthesized peptide: Water (pH 7.4) was used in all reactions and was first added to the wells. Peptides solubilized in water were added and then heme solubilized in 0.1 M NaOH was added, mixed thoroughly and measurements were taken immediately. Peptide and heme volume were kept to a maximum of 5 ul in volume. For all the absorption curves (except Extended FIG. 3a) […] was used. The same was also repeated with 0.1 M Tris buffer (pH 7.4) as a base buffer instead of water."}, "[4]": {"experiment": "Biolayer interferometry of heme binding", "conditions": "compared with NCR247 (L-enantiomer)", "text": "Biotinylation of heme: Hemin was biotinylated using the method exactly as described previouslyl^16. Biotin hydrazide, DCC was purchased from Sigma. COSMOSIL™ 5C18-AR-II Packed Column, 4.6 mm I.D.×150 mm from Nacalai USA (San Diego, CA) was used to separate the products. LC-MS was used to verify the correct molecular weight (969.4 Da) of biotinylated heme (in which only one of the two propionate groups of protoheme was conjugated with biotin hydrazide) as described above.\nBiolayer interferometry: Biolayer interferometry was carried out using a ForteBio Octet RED96™ biolayer interferometer, following the manufacturer's instructions for a standard kinetic assay. Streptavidin-coated biosensor tips were incubated in 200 μl assay buffer (Water [pH 7.4]), each for 60s. Then biotinylated heme (or NCR247 in the case of Fe(III) PPIX dimethyl ester chloride) was loaded onto each biosensor tip at the defined concentration until the binding signal reached a value of >1.4. Biosensor tip loading was followed by incubation in assay buffer for 60s. Association between the ligand-heme and the analyte-various variants of NCR247 (Increasing concentrations in assay buffer) was observed over a time frame of ˜116 s, in assay buffer. To stop binding kinetics for dissociation, the biosensor tips were placed back into assay buffer not containing any analyte, for 120 s. Curves were fit with Global fit analysis and Data analysis and KD calculation was performed using Fortebio™ data analyses 8.2 software as described previously^89."}, "[5]": {"conditions": "literature; read-out: KD for heme; cited from earlier work"}}, "data": [{"substance": "RNGCIVDPRCPYQQCRRPLYCAAA [NCR247 (RRR to AAA mutant)]", "values": [{"measurement": "Cell death in 24 hours", "setting": "Sinorhizobium meliloti [1]; 6 uM peptide", "value": "No cell death observed"}, {"measurement": "reduction in number of S. meliloti cells (bactericidal effect)", "setting": "Sinorhizobium meliloti [1]; incubated 24 hours, plated in non-selective medium", "value": "causes no reduction in number of S. meliloti cells"}, {"measurement": "inhibition of growth of S. meliloti (bacteriostatic effect)", "setting": "Sinorhizobium meliloti [2]", "value": "does not inhibit the growth of Sinorhizobium meliloti"}, {"measurement": "heme binding (absorption peaks 366 nm, ~450 nm; colour change)", "setting": "[3]", "value": "binds heme"}]}, {"substance": "RNGCIVDARCPYQKCSYPLYCRRR [M. sativa (alfalfa) NCR247 ortholog, NCR247 ortholog of M. sativa with a 4-amino acid change]", "values": [{"measurement": "heme binding affinity, in words", "setting": "[4]", "value": "binds heme with the same affinity"}]}, {"substance": "haempexin: heme scavenger", "values": [{"measurement": "Kd", "setting": "[5]", "value": "< 1000", "unit": "nM"}]}, {"substance": "hemoglobin", "values": [{"measurement": "Kd", "setting": "[5]", "value": 10, "unit": "nM"}]}, {"substance": "Aβ (1-42) peptide: human Aβ amyloid peptide derived from cleavage of the amyloid precursor protein", "values": [{"measurement": "Kd", "setting": "[5]", "value": 140, "unit": "nM"}]}]}
